Laboratory results as given in US9095565B2, “Methods for treating blood disorders” (Phoenicia Biosciences, Inc., priority 2006, dated 2015).

How the values were obtained:
[1] = tested on: γ globin promoter; assay: β/γ-globin promoter driven reporter gene assay; assay type: cell-based; details: Table 2
[2] = tested on: cells expressing fetal globin (F-cells); assay: Experiment 1: proportion of F-cells in hematopoietic colonies by FACScan; assay type: cell-based, human; details: same low concentrations as for fetal globin mRNA induction
Method: (§1) Erythroid burst-forming units (BFU-E) (erythroid progenitors) and colony-forming units granulocyte-macrophage (CFU-GM) (myeloid colonies) were cultured in semi-solid or in two-phase suspension media, with or without hematopoietic growth factors at high levels (e.g., erythropoietin at 3 U/ml) or reduced levels (BFU-E cell proliferation was evaluated by enumeration in colonies developing in the presence of reduced amounts of erythropoietin (0.5 U/ml) rather than 3 U (or 3000 mU)/ml, which is standard for these experimental systems), from cord blood or the peripheral blood of several types of humans. Experiments were carried out on samples derived from 1) β-thalassemia patients who expressed variable levels of fetal globin at baseline (and in untreated control cultures) and represent a variety of potential individual responses, 2) from normal umbilical cord blood samples, which express 40-50% fetal globin at baseline (and in untreated control cultures), 3) from CD34+ cells isolated from normal adult peripheral blood, which expressed low levels of fetal globin in untreated control cultures and at baseline; and 4) from peripheral blood of patients with sickle cell disease who were receiving treatment with hydroxyurea. These biological samples provide a range of potential difficulty in stimulating fetal globin expression in human patients.
Hematopoietic colonies were enumerated with or without (+/−) the test compounds, and compared to colonies which developed in the presence of hematopoietic growth factors alone from the same subject (untreated control colonies), and proportions of cells expressing fetal globin (F-cells) were analyzed by FACScan analysis.

[3] = tested on: Erythroid colonies (BFU-E); assay: Experiment 2: erythroid colonies (BFU-E) cultured from patients with beta thalassemia; assay type: cell-based, human; details: optimal panel of growth factors
Method: as §1
Erythroid colonies were cultured from patients with beta thalassemia, either without any test compounds (Control), only an optimal panel of hematopoietic growth factors, or with one of the test compounds M, P, T, 2-methyl-1-benzofuran-4-carboxylic acid, V, W, X, Y, AK, AC, or AI. […] Colony numbers were increased above the control cultures (% BFU-E/Control) by anywhere from 25% to 230%. Each of the listed test compounds was tested in at least 5 different patients' blood and the differences were statistically significant.

[4] = tested on: myeloid colonies; assay: Experiment 3: myeloid colonies in cord blood cultured without added growth factors; assay type: cell-based, human; details: no added growth factors
Method: as §1
Control colonies were established in cultures with no added growth factors to support myelopoiesis, in Iscove's Modified Dulbecco's Media (IMDM) methylcellulose media with charcoal-absorbed fetal bovine serum, beta mercaptoethanol, BSA.

[5] = tested on: fetal globin mRNA; assay: Fetal globin induction in phlebotomized anemic baboons; assay type: in vivo, baboon; details: for fetal globin mRNA (% of non-alpha globin): baseline 26%
Method: Juvenile baboons were catheterized with venous and arterial catheters, and were phlebotomized a set amount of blood daily to maintain anemia with a hemoglobin level of 7.0-7.5 g/dl, from a baseline normal hemoglobin level of (12-13 g/dl). Normal saline was infused to replace the amount of blood withdrawn. This degree of phlebotomy exchanges the blood volume every 10-20 days.
Fetal globin mRNA was analyzed at baseline anemia before and following administration of test compounds. Globin chain protein synthesis confirmed the mRNA findings.
Following establishment of the stable level of anemia, a test compound was administered once/day, either intravenously or orally, and blood was withdrawn through the arterial catheter for analysis of globin mRNA or for analysis of the test compound in the plasma by HPLC-MS. Pharmacokinetic profiles were established from the plasma levels and oral bioavailability (comparing area under the curve between IV and oral plasma levels) was determined for the test compounds.
In anemic Baboon 5002, baseline fetal globin mRNA, assayed by RNAse protection, was 26% of non-alpha globin. With treatment with compound Y at 5 mg/kg/dose, fetal globin mRNA increased to 48% of non-alpha globin, an 85% increase over the baseline level. Treatment with compound AK at 50 mg/kg induced a 51% fetal globin mRNA increase, a 96% increase over the baseline level. […] The human equivalent dose is 20% of these doses, or 1 mg/kg, 10 mg/kg, or 8 mg/kg respectively. Thus, these 3 compounds are highly suitable for pharmaceutical compositions at doses that human patients can readily tolerate.

[6] = tested on: γ-globin mRNA; assay: γ-globin mRNA by RT-PCR in erythroid colonies cultured from cord blood; assay type: cell-based, human; details: for Concentration required: increase in fetal globin mRNA, erythroid colonies from cord blood; for No. of Positive responses: positive cultures/cultures tested; for fetal globin induction: 3 cultures
Method: γ-globin mRNA was analyzed in control and treated erythroid colonies cultured from cord blood, by RT-PCR.

[7] = tested on: γ-globin gene reporter; assay: Related study: relative luciferase reporter gene induction; assay type: cell-based
Method: (§2) In a related study, the relative luciferase reporter gene induction, γ-globin gene induction, and F cell production was tested for several of the candidate compounds. The relative in vitro γ-globin gene reporter stimulation for the tested compounds was as follows: compound P>M>W=R=Y. The relative in vitro γ-globin gene induction for the tested compounds was as follows: P>R=M>Y>W>. The relative in vitro F-cell production was as follows: W>Y>R>M>P. The relative potency for F-cell production was as follows: R>M>Y>P>W.

[8] = tested on: γ-globin gene; assay: Related study: relative in vitro γ-globin gene induction; assay type: cell-based
Method: as §2

[9] = tested on: F-cell; assay: Related study: in vitro F cell production; assay type: cell-based
Method: as §2

[10] = tested on: BFU-E; assay: BFU-E cultured from cord blood; assay type: cell-based, human
Method: as §1
In a related study, BFU-E cultured from cord blood, was tested with or without compound M, P, R, T, W, Y, Z, AI, F, or 3-(5-chlorothien-3-yl)acrylic acid.

[11] = tested on: Erythroid colonies; assay: Experiment 6: erythroid colony growth from sickle cell patients receiving hydroxyurea; assay type: cell-based, human
Method: Erythroid colonies from the peripheral blood of 4 patients with sickle cell disease who were receiving treatment with Hydroxyurea (HU), a chemotherapeutic agent which suppresses marrow growth and reduces red blood cell production, were cultured alone or with added test compounds M, P, 2-methyl-1-benzofuran-4-carboxylic acid, V, W, Y (racemic mixture) or AI. L-arginine was added as a neutral control, and had no effect on numbers of erythroid colonies.
2-methyl-1-benzofuran-4-carboxylic acid and compound V require additional samples for statistical evaluation, but had positive effects in 3/3 different patients' cultures. These findings indicate that the test compounds stimulate erythroid cell production particularly in conditions of anemia and bone marrow suppression.

[12] = tested on: Erythroid colonies; assay: Example 7: erythroid colonies cultured with low Erythropoietin (0.5 U/ml) and compound Y enantiomers; assay type: cell-based, human
Method: The proliferative activity of compound Y—S enantiomer was tested in vitro in erythroid colonies cultured from peripheral blood of 3 sources of individuals: sickle cell anemia patients who were taking Hydroxyurea and have suppression of their endogenous erythropoiesis, a normal adult subject, and two cord blood samples. The erythroid cultures were established with low concentrations of Erythropoietin (0.5 U/ml) alone and with one or the other enantiomer of compound Y or the racemic mixture, or with high concentrations of EPO (3 Units/ml, =3000 mU/ml, 100-fold the normal physiologic concentration).

O=C(O)c1ccc(-c2ccccc2[N+](=O)[O-])o1 [X]
% γ globin promoter induction (above untreated control) [1]: ** (‘**’ indicates a 100%-200% increase) | proportion of F-cells above the percentage in untreated controls [2]: significant increases | number of erythroid colonies compared to matched control cultures [3]: increased the number of colonies | production of myeloid colonies compared to untreated control [4]: stimulated production of myeloid colonies

O=[N+]([O-])c1cc(S(=O)(=O)O)ccc1F [AK]
% γ globin promoter induction (above untreated control) [1]: ** (‘**’ indicates a 100%-200% increase) | number of erythroid colonies compared to matched control cultures [3]: increased the number of colonies | increase over the baseline level of fetal globin mRNA ([5]; Baboon 5002, 50 mg/kg): 96% | fetal globin mRNA (% of non-alpha globin) ([5]; Baboon 5002, 50 mg/kg): 51%

CCC(Nc1ncnc2ccccc12)C(=O)O (stereo not shown) [Compound M]
% γ globin promoter induction (above untreated control) [1]: ** (‘**’ indicates a 100%-200% increase) | Concentration required [6]: 5 µM | No. of Positive responses [6]: 4/6 | relative in vitro γ-globin gene reporter stimulation (rank order) [7]: P>M>W=R=Y | relative in vitro γ-globin gene induction (rank order) [8]: P>R=M>Y>W | relative in vitro F-cell production (rank order) [9]: W>Y>R>M>P | relative potency for F-cell production (rank order) [9]: R>M>Y>P>W | proportion of F-cells above the percentage in untreated controls [2]: significant increases | number of erythroid colonies compared to matched control cultures [3]: increased the number of colonies | numbers of BFU-E colonies compared to controls [10]: increased numbers of colonies | production of myeloid colonies compared to untreated control [4]: stimulated production of myeloid colonies | increase over the baseline level of fetal globin mRNA ([5]; Baboon 5002, 40 mg/kg): 257% | fetal globin mRNA (% of non-alpha globin) ([5]; Baboon 5002, 40 mg/kg): 67%

N=C(N)NCCC[C@H](N)C(=O)O [L-arginine]
effect on numbers of erythroid colonies compared to control [11]: no effect

COc1cc(OC)nc(S[C@@H](C(=O)O)C(C)C)n1 [Y + R]
fetal globin induction [6]: demonstrated fetal globin inducing action | Concentration required [6]: 5 µM | No. of Positive responses [6]: 2/3 | erythroid cell proliferation [12]: does not stimulate cell proliferation

CCOc1ccc(C(=O)O)cc1 [AI]
% γ globin promoter induction (above untreated control) [1]: ** (‘**’ indicates a 100%-200% increase) | number of erythroid colonies compared to matched control cultures [3]: increased the number of colonies | numbers of BFU-E colonies compared to controls [10]: increased numbers of colonies | production of myeloid colonies compared to untreated control [4]: stimulated production of myeloid colonies

COc1ccc(C(N)CC(=O)O)cc1OC (stereo not shown) [R]
% γ globin promoter induction (above untreated control) [1]: *** (‘***’ indicates an over 200% increase of γ globin promoter induction over untreated controls) | relative in vitro γ-globin gene reporter stimulation (rank order) [7]: P>M>W=R=Y | relative in vitro γ-globin gene induction (rank order) [8]: P>R=M>Y>W | relative in vitro F-cell production (rank order) [9]: W>Y>R>M>P | relative potency for F-cell production (rank order) [9]: R>M>Y>P>W | proportion of F-cells above the percentage in untreated controls [2]: significant increases | numbers of BFU-E colonies compared to controls [10]: increased numbers of colonies

EPO: Erythropoietin, high concentration 3 Units/ml in erythroid cultures
mean more colonies than cultures with racemic mix or R enantiomer in low EPO ([12]; high EPO 3 Units/ml): 35% | range of more colonies than cultures with racemic mix or R enantiomer in low EPO ([12]; high EPO 3 Units/ml): 25-45%

NC(=O)NO [Hydroxyurea]
effect on numbers of erythroid colonies compared to control [11]: decreased numbers of erythroid colonies

COc1cc(OC)nc(S[C@H](C(=O)O)C(C)C)n1 [Y − S]
fetal globin induction [6]: did not induce fetal globin in 2 of (the same) 3 cultures | Concentration required [6]: 5 µM | No. of Positive responses [6]: 1/3 | erythroid cell proliferation [12]: stimulates erythroid cell proliferation significantly | range of more erythroid colonies than in the racemic mixture ([12]; low EPO 0.5 U/ml): 38-50% | mean more erythroid colonies than in the racemic mixture ([12]; low EPO 0.5 U/ml, same concentration): 45%
